Experimental findings from US8013006B2 are described below.

The test system of one series is HCV replicon. The experiment in a line: microbe, parasite or virus in culture. The conditions noted are these: Hepatitis C virus, 48 h, read-out: Replicon IC5Os. In kind it is cell-based.

Regarding `CCOc1ccc2c(C#N)c(-c3ccc(NS(C)(=O)=O)cc3)n(CC(C)C)c2c1` [Compound 471], the melting point – broadly, the temperature, or range, at which the solid turns liquid – is 154 to 156 °C. The IC50 with HCV replicon was under 500 nM.

Consider `CCOc1ccc2c(C#N)c(-c3ccc(NS(C)(=O)=O)cc3)n(C3CCC3)c2c1` [Compound 472], for which the melting point lay within 215 to 217 °C. The IC50 in the series on HCV replicon is under 500 nM.

In turn, `CCOc1ccc2c(C#N)c(-c3ccc(NS(=O)(=O)CC)cc3)n(C3CCC3)c2c1` [Compound 473] showed a melting point of 189 to 191 °C. Also, the IC50 in the series on HCV replicon was under 500 nM.

`CCn1c(-c2ccc(NS(C)(=O)=O)cc2)c(C#N)c2ccc(OCCCl)cc21` [Compound 477] gave a melting point of 194 to 195 °C. Further, in the series on HCV replicon, the IC50 was under 500 nM.

Consider `CCn1c(-c2ccc(NS(C)(=O)=O)cc2)c(C#N)c2ccc(OCCN3CCSCC3)cc21` [Compound 480], for which the melting point was 207 to 208 °C. Besides, the IC50 in the series on HCV replicon is under 500 nM.

Molecule `CCCS(=O)(=O)Nc1ccc(-c2c(C#N)c3ccc(OCCCl)cc3n2CC)cc1` [Compound 495] showed a melting point of 126 to 128 °C. Also, the IC50 with HCV replicon was 500 to 2000 nM.

As to `CCn1c(-c2ccc(NS(C)(=O)=O)cc2)c(C#N)c2ccc(OCCN(C)C)cc21` [Compound 498], the melting point fell in the range of 192 to 194 °C. Further, in the series on HCV replicon, the IC50 lay within 500 to 2000 nM.

`CCn1c(-c2ccc(NS(=O)(=O)CC)cc2)cc2ccc(OC(F)F)cc21` [Compound 516, ethanesulfonic acid [4-(6-difluoromethoxy-1-ethyl-1H-iodo-2-yl)-phenyl]-amide]: the melting point lay within 155 to 156 °C. In the series on HCV replicon, the IC50 was in the range of 500 to 2000 nM.

`Cn1c(-c2ccc(NS(C)(=O)=O)cc2)c(C#N)c2ccc(OC(F)F)cc21` [Compound 518]: the melting point fell in the range of 197 to 199 °C. The IC50 with HCV replicon was in the range of 500 to 2000 nM.

Regarding `CCn1c(-c2ccc(NS(=O)(=O)CC)cc2)c(C#N)c2ccc(OC(F)F)cc21` [Compound 520], the melting point lay in the range of 175 to 177 °C. In addition, the IC50 in the series with HCV replicon is under 500 nM.

On to `CCCn1c(-c2ccc(NS(C)(=O)=O)cc2)c(C#N)c2ccc(OC(F)F)cc21` [Compound 521], for which the melting point was 184 to 186 °C. In addition, the IC50 in the series with HCV replicon is under 500 nM.

`CC(C)n1c(-c2ccc(NS(C)(=O)=O)cc2)c(C#N)c2ccc(OC(F)F)cc21` [Compound 523] displayed a melting point of 190 to 192 °C. Further, in the series with HCV replicon, the IC50 was under 500 nM.

For `CCn1c(-c2cccc(NS(=O)(=O)NC(C)C)c2)c(C#N)c2ccc(OC)cc21` [Compound 542], the melting point lay within 186 to 188 °C. The IC50 in the series on HCV replicon fell in the range of 500 to 2000 nM.

Consider `CCn1c(-c2ccc(N)cc2)c(C#N)c2ccc(OCCF)cc21` [Compound 543], for which the melting point is 197 to 200 °C. Further, the IC50 in the series with HCV replicon is 500 to 2000 nM.

Take `CCn1c(-c2ccc(NC(=O)C3CC3)cc2)c(C#N)c2ccc(OCCF)cc21` [Compound 544]: the melting point was 263 to 265 °C. Moreover, in the series with HCV replicon, the IC50 is under 500 nM.

Consider `CCn1c(-c2ccc(NC(=O)OC)cc2)c(C#N)c2ccc(OCCF)cc21` [Compound 545], for which the melting point lay within 203 to 205 °C. The IC50 in the series with HCV replicon lay within 500 to 2000 nM.

For the molecule `CCOC(=O)Nc1ccc(-c2c(C#N)c3ccc(OCCF)cc3n2CC)cc1` [Compound 546], the melting point is 208 to 210 °C. Also, in the series with HCV replicon, the IC50 is under 500 nM.

`CCn1c(-c2ccc(NS(C)(=O)=O)cc2)c(C#N)c2ccc(OCCF)cc21` [Compound 548] showed a melting point of 171 to 174 °C. For the same molecule, the IC50 in the series on HCV replicon fell in the range of 500 to 2000 nM.

Regarding `CCn1c(-c2ccc(NS(=O)(=O)CC)cc2)c(C#N)c2ccc(OCCF)cc21` [Compound 549], the melting point lay in the range of 150 to 153 °C. The IC50 with HCV replicon is under 500 nM.

As to `CCCS(=O)(=O)Nc1ccc(-c2c(C#N)c3ccc(OCCF)cc3n2CC)cc1` [Compound 550], the melting point was in the range of 183 to 185 °C. Besides, the IC50 with HCV replicon was 500 to 2000 nM.

Consider `CCn1c(-c2ccc(NS(=O)(=O)CCCCl)cc2)c(C#N)c2ccc(OCCF)cc21` [Compound 551], for which the melting point lay in the range of 187 to 190 °C. For the same molecule, in the series with HCV replicon, the IC50 lay within 500 to 2000 nM.

For the molecule `CCn1c(-c2ccc(NS(=O)(=O)C3CC3)cc2)c(C#N)c2ccc(OCCF)cc21` [Compound 552], the melting point is 185 to 188 °C. The IC50 in the series on HCV replicon was under 500 nM.

In the case of `CCCS(=O)(=O)Nc1cccc(-c2c(C#N)c3ccc(C(F)(F)F)cc3n2CC)c1` [Compound 563], the melting point is 210 to 212 °C. The IC50 with HCV replicon fell in the range of 500 to 2000 nM.

For the molecule `CCn1c(-c2ccc(NC(=O)C3CCC3)cc2)c(C#N)c2ccccc21` [Compound 567], the melting point was 238.2 to 238.6 °C. The IC50 in the series on HCV replicon lay within 500 to 2000 nM.

Consider `CCn1c(-c2ccc(C(=O)NC(C)C)cc2)c(C#N)c2cc(OC)ccc21` [Compound 570], for which the melting point was in the range of 220 to 222 °C. Besides, in the series with HCV replicon, the IC50 fell in the range of 500 to 2000 nM.

Consider `CCS(=O)(=O)Nc1ccc(-c2c(C#N)c3cc(OC)ccc3n2C)cc1` [Compound 580], for which the melting point lay within 198 to 200 °C. Further, in the series on HCV replicon, the IC50 is under 500 nM.

`CCCS(=O)(=O)Nc1ccc(-c2c(C#N)c3cc(Cl)ccc3n2CC)cc1` [Compound 601] yielded a melting point of 195 to 200 °C. Besides, the IC50 in the series with HCV replicon was under 500 nM.

For `CCn1c(-c2ccc(NS(=O)(=O)C3CC3)cc2)c(C#N)c2cc(Cl)ccc21` [Compound 602], the melting point is 179 to 184 °C. Also, in the series with HCV replicon, the IC50 was under 500 nM.

As to `CCCOC(=O)Nc1cccc(-c2c(C#N)c3cc(N4CCOCC4)ccc3n2CC)c1` [Compound 606], the melting point fell in the range of 166 to 170 °C. In addition, in the series on HCV replicon, the IC50 is under 500 nM.

For the molecule `CCn1c(-c2cccc(NC(=O)OCCOC)c2)c(C#N)c2cc(N3CCOCC3)ccc21` [Compound 607], the melting point was 189 to 194 °C. The IC50 in the series with HCV replicon was under 500 nM.

Turning to `COc1ccc2c(C#N)c(-c3ccc(NS(C)(=O)=O)cc3)n(CC3CC3)c2c1` [Compound 611], the melting point lay within 126 to 128 °C. The IC50 in the series on HCV replicon fell in the range of 500 to 2000 nM.

Regarding `CCS(=O)(=O)Nc1ccc(-c2c(C#N)c3ccc(OC)cc3n2CC2CC2)cc1` [Compound 612], the melting point is 198 to 200 °C. Further, the IC50 in the series with HCV replicon lay within 500 to 2000 nM.

Molecule `CS(=O)(=O)Nc1ccc(-c2c(C#N)c3ccc(OC(F)F)cc3n2CC2CC2)cc1` [Compound 613] yielded a melting point of 198 to 200 °C. In addition, in the series on HCV replicon, the IC50 was under 500 nM.

Consider `CCS(=O)(=O)Nc1ccc(-c2c(C#N)c3ccc(OC(F)F)cc3n2CC2CC2)cc1` [Compound 614], for which the melting point fell in the range of 176 to 177 °C. The IC50 in the series with HCV replicon was under 500 nM.

Consider `CCCCS(=O)(=O)Nc1ccc(-c2c(C#N)c3cc(Cl)ccc3n2CC)cc1` [Compound 616], for which the melting point lay in the range of 143 to 149 °C. Also, in the series on HCV replicon, the IC50 was under 500 nM.

`CCn1c(-c2ccc(NS(=O)(=O)CCCCl)cc2)c(C#N)c2cc(Cl)ccc21` [Compound 617] returned a melting point of 164 to 167 °C. Moreover, the IC50 in the series on HCV replicon is under 500 nM.

Molecule `CCOC(=O)Nc1ccc(-c2c(C#N)c3cc(Cl)ccc3n2CC)cc1` [Compound 618] registered a melting point of 205 to 211 °C. Also, in the series with HCV replicon, the IC50 is under 500 nM.

The molecule `CCCOC(=O)Nc1ccc(-c2c(C#N)c3cc(Cl)ccc3n2CC)cc1` [Compound 619] registered a melting point of 201 to 206 °C. Further, in the series on HCV replicon, the IC50 is 500 to 2000 nM.

The molecule `CCCn1c(-c2ccc(NS(=O)(=O)CCC)cc2)c(C#N)c2ccc(OC)cc21` [Compound 621] displayed a melting point of 187 to 188 °C. In the series with HCV replicon, the IC50 lay in the range of 500 to 2000 nM.

As for `CCCn1c(-c2ccc(NS(=O)(=O)C(C)C)cc2)c(C#N)c2ccc(OC)cc21` [Compound 622], the melting point was 182 to 183 °C. In addition, in the series with HCV replicon, the IC50 lay in the range of 500 to 2000 nM.

For the molecule `CCCn1c(-c2ccc(NS(=O)(=O)Cc3ccccc3)cc2)c(C#N)c2ccc(OC)cc21` [Compound 623], the melting point is 217 to 218 °C. For the same molecule, the IC50 with HCV replicon was in the range of 500 to 2000 nM.

`CCCn1c(-c2ccc(NC(=O)NCC)cc2)c(C#N)c2ccc(OC)cc21` [Compound 626] came in with a melting point of 193 to 194 °C. In addition, the IC50 with HCV replicon fell in the range of 500 to 2000 nM.

Take `CCCNC(=O)Nc1ccc(-c2c(C#N)c3cc(Cl)ccc3n2CC)cc1` [Compound 628]: the melting point is 221 to 226 °C. Besides, the IC50 in the series with HCV replicon was in the range of 500 to 2000 nM.

Consider `CCS(=O)(=O)Nc1ccc(-c2c(C#N)c3cc(Cl)ccc3n2CCC(C)C)cc1` [Compound 631], for which the melting point was 177 to 182 °C. In addition, the IC50 with HCV replicon lay within 500 to 2000 nM.

`C=Cn1c(-c2ccc(NS(=O)(=O)CC)cc2)c(C#N)c2ccc(OC)cc21` [Compound 633] registered a melting point of 159 to 161 °C. Also, in the series on HCV replicon, the IC50 was in the range of 500 to 2000 nM.

In turn, `C=Cn1c(-c2ccc(NS(=O)(=O)C3CC3)cc2)c(C#N)c2ccc(OC)cc21` [Compound 635] registered a melting point of 200 to 201 °C. Moreover, the IC50 with HCV replicon is under 500 nM.

`CCCn1c(-c2ccc(NC(=O)OC(C)C)cc2)c(C#N)c2ccc(OC)cc21` [Compound 641] showed a melting point of 177 to 178 °C. For the same molecule, the IC50 in the series on HCV replicon is 500 to 2000 nM.

Consider `CCn1c(-c2ccc(CNS(C)(=O)=O)cc2)c(C#N)c2ccc(OC)cc21` [Compound 650], for which the melting point is 165 to 166 °C. In addition, in the series on HCV replicon, the IC50 is 500 to 2000 nM.

As to `CCn1c(-c2ccc(N(C)S(=O)(=O)CCl)cc2)c(C#N)c2ccc(OC)cc21` [Compound 652], the melting point fell in the range of 191 to 194 °C. The IC50 in the series on HCV replicon was under 500 nM.

In the case of `CCCOc1ccc2c(C#N)c(-c3ccc(N4CCCS4(=O)=O)cc3)n(CC)c2c1` [Compound 667], the melting point was 242 to 244 °C. Besides, the IC50 in the series on HCV replicon was under 500 nM.

On to `CCn1c(-c2ccc(NS(=O)(=O)CC)cc2)c(C#N)c2ccc(OCc3cccnc3)cc21` [Compound 669], for which the melting point is 213 to 215 °C. Besides, the IC50 with HCV replicon is under 500 nM.

`CCn1c(-c2ccc(NS(=O)(=O)C3CC3)cc2)c(C#N)c2ccc(OCc3cccnc3)cc21` [Compound 670]: the melting point is 231 to 233 °C. In addition, the IC50 with HCV replicon was under 500 nM.

The molecule `CCn1c(-c2ccc(NS(=O)(=O)CC)cc2)c(C#N)c2ccc(OCc3ccccn3)cc21` [Compound 671] returned a melting point of 221 to 222 °C. Moreover, the IC50 with HCV replicon is under 500 nM.
